Our source for the DC50 and Dmax values is patent US11957759B1, “Rapidly accelerated fibrosarcoma (RAF) degrading compounds and associated methods of use” (Arvinas Operations, Inc., priority 2022, dated 2024).

One experiment addresses T1, B-RAF G466V (Homo sapiens, UniProt P15056, G466V).
T1 construct: expressed in transfected cells; host or cells: T-Rex 293 cells (Invitrogen #R71007)
The experiment can be described thus: Target protein degradation, assay D: T-Rex 293 cells, HA-BRAF_G466V, 384 well format. Type of experiment: cell-based. The following applies: T-Rex 293 HA-BRAF_G466V cells, 24 hours, Examples 83-269; for DC50: Assay D; for Dmax: T-REx-293, Assay D. In outline:
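Degradation measured by high-content imaging of anti-HA immunofluorescence in fixed T-Rex 293 cells carrying inducible HA-BRAF G466V (1 ng/mL doxycycline), after 24 h PROTAC exposure at 37 °C over 300 nM–5 pM (1:3, 11 points, 0.5% DMSO). Outputs DC50 and Dmax as % of control; nuclei counts against DMSO wells gauge toxicity.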

In the next experiment the target is T2, B-RAF V600E (Homo sapiens, UniProt P15056, V600E).
T2 construct: expressed in transfected cells; host or cells: T-Rex 293 cells (Invitrogen #R71007)
The experiment can be described thus: Target protein degradation, assay C: T-Rex 293 cells, HA-BRAF_V600E, 384 well format. Type of experiment: cell-based. The following applies: T-Rex 293 HA-BRAF_V600E cells, 24 hours, Examples 83-269; for DC50: Assay C; for Dmax: T-REx-293, Assay C. The essentials:
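After 24 h exposure to an 11-point 1:3 series (300 nM–5 pM, 0.5% DMSO), fixed T-Rex 293 cells carrying HA-BRAF V600E (induced with 1 ng/mL doxycycline) were stained anti-HA and imaged. DC50 and Dmax were derived from BRAF intensity relative to control, and cytotoxicity from nuclear counts.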

T1 sequence (P15056 whole entry G466V): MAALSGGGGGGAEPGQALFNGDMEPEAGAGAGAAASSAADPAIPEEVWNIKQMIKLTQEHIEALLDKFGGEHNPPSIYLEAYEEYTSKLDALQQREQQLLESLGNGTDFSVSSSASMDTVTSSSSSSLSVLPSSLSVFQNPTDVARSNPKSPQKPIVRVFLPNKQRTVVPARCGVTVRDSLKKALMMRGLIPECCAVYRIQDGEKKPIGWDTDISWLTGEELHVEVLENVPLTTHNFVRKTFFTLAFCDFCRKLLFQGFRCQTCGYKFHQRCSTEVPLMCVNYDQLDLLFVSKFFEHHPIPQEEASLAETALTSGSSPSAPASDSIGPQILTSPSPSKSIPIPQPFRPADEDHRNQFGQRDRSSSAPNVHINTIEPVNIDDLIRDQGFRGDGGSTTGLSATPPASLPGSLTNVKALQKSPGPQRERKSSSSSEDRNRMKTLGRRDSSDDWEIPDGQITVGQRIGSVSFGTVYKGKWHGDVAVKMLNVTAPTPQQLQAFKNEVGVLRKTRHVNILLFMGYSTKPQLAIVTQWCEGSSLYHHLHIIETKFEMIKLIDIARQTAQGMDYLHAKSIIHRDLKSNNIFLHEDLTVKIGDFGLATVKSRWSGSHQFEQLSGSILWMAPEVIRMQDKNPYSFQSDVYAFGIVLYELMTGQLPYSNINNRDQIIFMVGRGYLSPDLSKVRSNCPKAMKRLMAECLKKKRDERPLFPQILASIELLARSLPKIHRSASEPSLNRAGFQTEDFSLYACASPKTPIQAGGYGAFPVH
T2 sequence (P15056 whole entry V600E): as the sequence (P15056 whole entry G466V) above, with V466G, V600E counted along it

As a reminder, the DC50 is the concentration giving 50% degradation. A word on the Dmax: it is the greatest extent of degradation seen. Lower therefore signals shallow degradation. For the compound `CN(CC1CCN(c2ccc(-n3cnc4ccc(Oc5c(F)ccc(NS(=O)(=O)N6CC[C@@H](F)C6)c5C#N)cc4c3=O)cc2)CC1)[C@H]1C[C@@H](Oc2ccc3c(c2)CN([C@H]2CCC(=O)NC2=O)C3=O)C1` [Example 206, (3R)-N-{2-cyano-4-fluoro-3-[(3-{4-[4-({methyl[(1r,3r)-3-({2-[(3S)-2,6-dioxopiperidin-3-yl]-1-oxo-2,3-dihydro-1H-isoindol-5-yl}oxy)cyclobutyl]amino}methyl)piperidin-1-yl]phenyl}-4-oxo-3,4-dihydroquinazolin-6-yl)oxy]phenyl}-3-fluoropyrrolidine-1-sulfonamide], at B-RAF G466V, the DC50 fell in the range of 1 to 10 nM and the greatest degradation seen (Dmax) is at most 35%. At B-RAF V600E, this compound yielded a DC50 of 50 to 500 nM and a Dmax of at least 70%.

At B-RAF G466V, `N#Cc1c(NS(=O)(=O)N2CC[C@@H](F)C2)ccc(F)c1Oc1ccc2ncn(-c3ccc(C4CCCN(CC5CCN(c6ccc7c(c6)CN([C@H]6CCC(=O)NC6=O)C7=O)CC5)C4)cc3)c(=O)c2c1` (stereo partly drawn) [Example 207, (3R)-N-(2-cyano-3-{[3-(4-{1-[(1-{2-[(3S)-2,6-dioxopiperidin-3-yl]-1-oxo-2,3-dihydro-1H-isoindol-5-yl}piperidin-4-yl)methyl]piperidin-3-yl}phenyl)-4-oxo-3,4-dihydroquinazolin-6-yl]oxy}-4-fluorophenyl)-3-fluoropyrrolidine-1-sulfonamide] gave a 50% degradation concentration (DC50) of 1 to 10 nM and a Dmax of 35 to 70%. In addition, at B-RAF V600E, the DC50 lay within 50 to 500 nM and the Dmax was at least 70%.

On B-RAF G466V, `N#Cc1c(NS(=O)(=O)N2CC[C@@H](F)C2)ccc(F)c1Oc1ccc2ncn(-c3ccc(C4CCN(CC5CCN(c6ccc7c(c6)CN([C@H]6CCC(=O)NC6=O)C7=O)CC5)C4)cc3)c(=O)c2c1` (stereo partly drawn) [Example 208, (3R)-N-(2-cyano-3-{[3-(4-{1-[(1-{2-[(3S)-2,6-dioxopiperidin-3-yl]-1-oxo-2,3-dihydro-1H-isoindol-5-yl}piperidin-4-yl)methyl]pyrrolidin-3-yl}phenyl)-4-oxo-3,4-dihydroquinazolin-6-yl]oxy}-4-fluorophenyl)-3-fluoropyrrolidine-1-sulfonamide] came in with a DC50 of 1 to 10 nM and a Dmax of at most 35%. Further, at B-RAF V600E, the DC50 fell in the range of 5 to 50 nM and the Dmax lay in the range of 35 to 70%.

Consider `Cc1c(NS(=O)(=O)N2CC[C@@H](F)C2)ccc(F)c1Oc1ccc2ncn(-c3ccc(N4CCN(CC5CCN(c6ccc7c(c6)CN(C6CCC(=O)NC6=O)C7=O)CC5)CC4)cc3)c(=O)c2c1` (stereo partly drawn) [Example 210, (3R)-N-{3-[(3-{4-[4-({1-[2-(2,6-dioxopiperidin-3-yl)-1-oxo-2,3-dihydro-1H-isoindol-5-yl]piperidin-4-yl}methyl)piperazin-1-yl]phenyl}-4-oxo-3,4-dihydroquinazolin-6-yl)oxy]-4-fluoro-2-methylphenyl}-3-fluoropyrrolidine-1-sulfonamide], for which the DC50 at B-RAF G466V was in the range of 10 to 30 nM; on B-RAF V600E it was 50 to 500 nM. Also, the Dmax on B-RAF G466V and at B-RAF V600E was 35 to 70% each time.

At B-RAF G466V, `N#Cc1c(NS(=O)(=O)N2CC[C@@H](F)C2)ccc(F)c1Oc1ccc2ncn(-c3cccc(C4CCN(CC5CCN(c6ccc7c(c6)CN([C@H]6CCC(=O)NC6=O)C7=O)CC5)C4)c3)c(=O)c2c1` (stereo partly drawn) [Example 211, (3R)-N-(2-cyano-3-{[3-(3-{1-[(1-{2-[(3S)-2,6-dioxopiperidin-3-yl]-1-oxo-2,3-dihydro-1H-isoindol-5-yl}piperidin-4-yl)methyl]pyrrolidin-3-yl}phenyl)-4-oxo-3,4-dihydroquinazolin-6-yl]oxy}-4-fluorophenyl)-3-fluoropyrrolidine-1-sulfonamide] showed a DC50 of 1 to 10 nM and a Dmax of 35 to 70%. Moreover, on B-RAF V600E, the half-maximal degradation concentration (DC50) is 50 to 500 nM and the greatest degradation seen (Dmax) was 35 to 70%.

`C[C@H]1CN(CC2CCN(c3ccc4c(c3F)CN([C@H]3CCC(=O)NC3=O)C4=O)CC2)CCN1c1ccc(-n2cnc3ccc(Oc4c(F)ccc(NS(=O)(=O)N5CC[C@@H](F)C5)c4C#N)cc3c2=O)nc1` [Example 213, (3R)-N-{2-cyano-3-[(3-{5-[(2S)-4-[(1-{2-[(3S)-2,6-dioxopiperidin-3-yl]-4-fluoro-1-oxo-2,3-dihydro-1H-isoindol-5-yl}piperidin-4-yl)methyl]-2-methylpiperazin-1-yl]pyridin-2-yl}-4-oxo-3,4-dihydroquinazolin-6-yl)oxy]-4-fluorophenyl}-3-fluoropyrrolidine-1-sulfonamide]: on B-RAF G466V, the DC50 was in the range of 1 to 10 nM and the Dmax is at most 35%. On B-RAF V600E, the DC50 is 50 to 500 nM and the Dmax was at most 35%.

Regarding `C[C@H]1CN(CC2CCN(c3ccc4c(c3F)CN([C@@H]3CCC(=O)NC3=O)C4=O)CC2)CCN1c1ccc(-n2cnc3ccc(Oc4c(F)ccc(NS(=O)(=O)N5CC[C@@H](F)C5)c4C#N)cc3c2=O)nc1` [Example 214, (3R)-N-{2-cyano-3-[(3-{5-[(2S)-4-[(1-{2-[(3R)-2,6-dioxopiperidin-3-yl]-4-fluoro-1-oxo-2,3-dihydro-1H-isoindol-5-yl}piperidin-4-yl)methyl]-2-methylpiperazin-1-yl]pyridin-2-yl}-4-oxo-3,4-dihydroquinazolin-6-yl)oxy]-4-fluorophenyl}-3-fluoropyrrolidine-1-sulfonamide], at B-RAF G466V, the DC50 fell in the range of 10 to 30 nM and the Dmax is at most 35%. This compound also displayed a half-maximal degradation concentration (DC50) on B-RAF V600E above 500 nM.

Regarding `N#Cc1c(NS(=O)(=O)N2CC[C@@H](F)C2)ccc(F)c1Oc1ccc2ncn(-c3ccc(N4CCC(CN5CC(c6ccc7c(c6)CN([C@H]6CCC(=O)NC6=O)C7=O)C5)CC4)cc3)c(=O)c2c1` [Example 215, (3R)-N-(2-cyano-3-{[3-(4-{4-[(3-{2-[(3S)-2,6-dioxopiperidin-3-yl]-1-oxo-2,3-dihydro-1H-isoindol-5-yl}azetidin-1-yl)methyl]piperidin-1-yl}phenyl)-4-oxo-3,4-dihydroquinazolin-6-yl]oxy}-4-fluorophenyl)-3-fluoropyrrolidine-1-sulfonamide], the figures for the DC50 at B-RAF G466V and at B-RAF V600E were 1 to 10 nM and 50 to 500 nM, respectively. The Dmax on B-RAF G466V is at most 35%; at B-RAF V600E it was 35 to 70%.

`N#Cc1c(NS(=O)(=O)N2CC[C@@H](F)C2)ccc(F)c1Oc1ccc2ncn(-c3ccc(N4CCC(CN5CC(c6ccc7c(c6)CN([C@@H]6CCC(=O)NC6=O)C7=O)C5)CC4)cc3)c(=O)c2c1` [Example 216]: on B-RAF G466V, the DC50 lay in the range of 1 to 10 nM and the Dmax is at most 35%. On B-RAF V600E, this compound displayed a DC50 of 50 to 500 nM and a Dmax of 35 to 70%.

With `N#Cc1c(NS(=O)(=O)N2CC[C@@H](F)C2)ccc(F)c1Oc1ccc2ncn(-c3ccc(N4CCC(CN5CCN(c6ccc7c(c6)CN([C@H]6CCC(=O)NC6=O)C7=O)CC5)C4)cc3)c(=O)c2c1` (stereo partly drawn) [Example 217, (3R)-N-(2-cyano-3-{[3-(4-{3-[(4-{2-[(3S)-2,6-dioxopiperidin-3-yl]-1-oxo-2,3-dihydro-1H-isoindol-5-yl}piperazin-1-yl)methyl]pyrrolidin-1-yl}phenyl)-4-oxo-3,4-dihydroquinazolin-6-yl]oxy}-4-fluorophenyl)-3-fluoropyrrolidine-1-sulfonamide], the DC50 lay within 1 to 10 nM at B-RAF G466V and 50 to 500 nM on B-RAF V600E. In addition, the Dmax at B-RAF G466V was at most 35%; on B-RAF V600E, 35 to 70%.

For the compound `Cn1c(=O)n(C2CCC(=O)NC2=O)c2cccc(N3CC(CN4CCN(c5ccc(-n6cnc7ccc(Oc8c(F)ccc(NS(=O)(=O)N9CC[C@@H](F)C9)c8C#N)cc7c6=O)cc5)CC4)C3)c21` (stereo partly drawn) [Example 218, (3R)-N-{2-cyano-3-[(3-{4-[4-({1-[1-(2,6-dioxopiperidin-3-yl)-3-methyl-2-oxo-2,3-dihydro-1H-1,3-benzodiazol-4-yl]azetidin-3-yl}methyl)piperazin-1-yl]phenyl}-4-oxo-3,4-dihydroquinazolin-6-yl)oxy]-4-fluorophenyl}-3-fluoropyrrolidine-1-sulfonamide], the DC50 is 1 to 10 nM on B-RAF G466V and 50 to 500 nM on B-RAF V600E. In addition, the Dmax on B-RAF G466V and on B-RAF V600E was 35 to 70% throughout.

`N#Cc1c(NS(=O)(=O)N2CC[C@@H](F)C2)ccc(F)c1Oc1ccc2ncn(-c3ccc(N4CCC(CN5CC6(CCC(c7ccc8c(c7)CN([C@H]7CCC(=O)NC7=O)C8=O)CC6)C5)CC4)cc3)c(=O)c2c1` [Example 219, (3R)-N-(2-cyano-3-{[3-(4-{4-[(7-{2-[(3S)-2,6-dioxopiperidin-3-yl]-1-oxo-2,3-dihydro-1H-isoindol-5-yl}-2-azaspiro[3.5]nonan-2-yl)methyl]piperidin-1-yl}phenyl)-4-oxo-3,4-dihydroquinazolin-6-yl]oxy}-4-fluorophenyl)-3-fluoropyrrolidine-1-sulfonamide]: on B-RAF G466V, the DC50 fell in the range of 1 to 10 nM and the Dmax lay in the range of 35 to 70%. Moreover, on B-RAF V600E, the 50% degradation concentration (DC50) lay within 50 to 500 nM and the Dmax lay in the range of 35 to 70%.

Regarding `N#Cc1c(NS(=O)(=O)N2CC[C@@H](F)C2)ccc(F)c1Oc1ccc2ncn(-c3ccc(N4CCC(CN5CC6(CCC(c7ccc8c(c7)CN([C@@H]7CCC(=O)NC7=O)C8=O)CC6)C5)CC4)cc3)c(=O)c2c1` [Example 220, (3R)-N-(2-cyano-3-{[3-(4-{4-[(7-{2-[(3R)-2,6-dioxopiperidin-3-yl]-1-oxo-2,3-dihydro-1H-isoindol-5-yl}-2-azaspiro[3.5]nonan-2-yl)methyl]piperidin-1-yl}phenyl)-4-oxo-3,4-dihydroquinazolin-6-yl]oxy}-4-fluorophenyl)-3-fluoropyrrolidine-1-sulfonamide], the DC50 on B-RAF G466V fell in the range of 10 to 30 nM; at B-RAF V600E it was 50 to 500 nM. The Dmax at B-RAF G466V and at B-RAF V600E was 35 to 70% throughout.
